Assay results: publication PMC12865225 (Clinical and Translational Science, 2026)

Target: T1, OATP1B3 (Homo sapiens, UniProt Q9NPD5)
T1 construct: expressed in transfected cells; host or cells: HEK293 (recombinant baculovirus-mediated transduction)
T1 sequence (Q9NPD5 1-702): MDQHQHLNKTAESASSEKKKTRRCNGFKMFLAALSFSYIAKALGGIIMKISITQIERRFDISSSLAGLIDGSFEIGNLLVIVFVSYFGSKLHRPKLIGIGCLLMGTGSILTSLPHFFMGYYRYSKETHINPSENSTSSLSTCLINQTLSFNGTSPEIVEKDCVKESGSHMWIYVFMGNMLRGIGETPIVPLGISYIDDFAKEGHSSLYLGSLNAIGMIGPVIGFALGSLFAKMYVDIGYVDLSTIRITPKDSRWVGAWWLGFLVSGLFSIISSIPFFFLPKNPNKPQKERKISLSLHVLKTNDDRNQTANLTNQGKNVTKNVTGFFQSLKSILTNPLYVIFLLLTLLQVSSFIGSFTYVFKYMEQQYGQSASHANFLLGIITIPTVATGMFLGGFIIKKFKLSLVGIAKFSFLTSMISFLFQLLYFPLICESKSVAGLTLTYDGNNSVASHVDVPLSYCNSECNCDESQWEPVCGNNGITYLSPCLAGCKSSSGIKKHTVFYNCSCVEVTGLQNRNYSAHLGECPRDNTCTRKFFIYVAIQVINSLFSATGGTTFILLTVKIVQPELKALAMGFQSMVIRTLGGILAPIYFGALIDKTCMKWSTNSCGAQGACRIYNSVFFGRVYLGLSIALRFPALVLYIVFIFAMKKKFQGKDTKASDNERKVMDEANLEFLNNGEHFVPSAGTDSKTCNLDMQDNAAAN
Test: OATP1B3 inhibition with fluorescent substrate 8-Fluo-cAMP in HEK293 cells
Type: cell-based
Settings: 2.5 µM 8-Fluo-cAMP, 5 min, 30 min preincubation
Protocol: 8- (2- [Fluoresceinyl]aminoethylthio)adenosine- 3', 5'- cyclic monophosphate (8-Fluo-cAMP) was acquired from Biolog Life Science Institute (Bremen, Germany), 4′,5′-dibromofluorescein was acquired from Sigma-Aldrich (St. Louis, MO, USA) and 2′,7′-dichlorofluorescein was acquired from Santa Cruz Biotechnology (Dallas, TX, USA).
Inhibition studies with fluorescent substrates in OATP transduced HEK293 cells The concentrations of fluorescent probe substrates were 1 µM 2′,7′-dichlorofluorescein for OATP1B1, 2.5 µM 8-Fluo-cAMP for OATP1B3 and 1 µM 4′,5′-dibromofluorescein for OATP2B1, and these concentrations were selected to be within or below of previously reported […]
reported linear ranges of transport for these substrate-transporter combinations.1,2,4 8-Fluo-cAMP was dissolved in ultrapure water, while dimethyl sulfoxide (DMSO) was used for all other compounds. […] For the quantification of fluorescent substrates, cells were lysed with 120 µl of lysis solution (1% Triton X-100, 5 mM EDTA, 150 mM sodium chloride and 150 mM TRIC-hydrochloride and adjusted to pH 8 with sodium hydroxide) for 30 min at 300 RPM shaking before transferring 80 µl of samples to a transparent 96-well plate containing 20 µl of 0.5 M sodium hydroxide. […] The plates were measured with a fluorescent plate reader (Varioskan LUX from ThermoFisher Scientific). […]

IC50 [µM] | SMILES
4.28 | Cc1onc(-c2c(Cl)cccc2Cl)c1C(=O)N[C@@H]1C(=O)N2[C@@H]1SC(C)(C)[C@@H]2C(=O)O [Dicloxacillin]
46.3 | Cc1onc(-c2c(F)cccc2Cl)c1C(=O)N[C@@H]1C(=O)N2[C@@H]1SC(C)(C)[C@@H]2C(=O)O [Flucloxacillin]
